One experiment has as its system Gst-H2AX (1–35). In words: Gst-pulldown with Gst-H2AX (1–35). The class given is binding, human. The following applies: E. coli-expressed, 4 °C, 2 h, WB anti-HA, Figure 5B. Here is the method: (§1) Logarithmically growing cells were either untreated or treated with different agents for various time periods. The cells were lysed to prepare protein extracts. IP was carried out by incubating approximately 1 mg of the protein lysate with appropriate antibodies. The immunoprecipitates were then analyzed by SDS-PAGE, followed by WB with respective, interacting protein. For Gst-pulldown, Gst-H2AX or various His-TAT-HA-tagged CARP-1 peptides were generated in Escherichia coli (E. coli) BL21 cells essentially as described by us previously. Briefly, the competent E. coli BL-21 (DE3) pLysS cells were transformed separately with various recombinant pGEX-4T-1 or pTAT-HA constructs. The transformed cells were then subjected to selection by combined presence of ampicillin and chloramphenicol; various isolates for each transformation were obtained and bacterial lysates were characterized for expression of fusion peptides. Cells from each isolate were grown in 4 mL of LB medium containing ampicillin only until the optical density (OD)600 reached 0.4–0.8. Expression of fusion peptides was induced over 2–4 h incubation periods after Isopropyl β-D-1-thiogalactopyranoside (IPTG) addition. The cells were harvested, and pellets were stored at −80 °C overnight. […]

The subject of a further experiment is Gst-H2AX. In words: Gst-pulldown with Gst-H2AX. It counts as binding, human. The conditions noted are these: E. coli-expressed, 4 °C, 2 h, WB anti-HA, Figure 5A. Here is the method: as §1
For the next experiment, the target named is T1, H2AX (1–35) peptide (Homo sapiens, UniProt P16104).
T1 construct: CARP-1 (636–650) and H2AX (1–35) peptides, each with ≥90% purity, were commercially synthesized; purchased
The experiment in a line: Surface plasmon resonance, CARP-1 peptide with H2AX (1–35) peptide. The following applies: SPR, PBST pH 7.4, 25 °C, 1:1 global fit. The class given is binding. Here is the method: Affinity purification of the Gst-tagged or His-tagged fusion proteins was carried out essentially following procedure previously described by us. Briefly, the bacteria expressing respective fusion protein were cultured in 500 mL of LB medium containing ampicillin until the OD600 reached 0.4–0.6. Protein expression was induced by addition of IPTG over an additional 2–4-h incubation at 37 °C. Cells were harvested, and pellets were stored overnight at −80 °C, and lysed in 4–5 mL of BPER lysis buffer containing DNAse I as detailed above. […] Fractions containing eluted fusion protein were pooled, and dialyzed overnight at 4 °C in 1–2 L of 1× Tris-buffered saline (BioRad, Hercules, CA, USA) with multiple buffer changes. Following measurement of protein concentration, the purified protein was aliquoted and snap-frozen in liquid N2 for storage. […]
Next, kinetics of CARP-1 binding with H2AX were determined by surface plasmon resonance (SPR) technology (Profacgen, Shirley, NY, USA). […] The signal changes after binding and washing (in AU) were recorded as the assay value. Selected protein-grafted regions in the SPR images were analyzed, and the average reflectivity variations of the chosen areas were plotted as a function of time. Real-time binding signals were recorded and analyzed using a data analysis module (DAM) obtained from Plexera Bioscience (Seattle, WA, USA). […]

Another experiment relates to DBC1 (CCAR2). The experiment in a line: Co-immunoprecipitation with Dbc1 (CCAR2). It counts as cell-based. The following applies: Dbc1-expressing PT67 (NIH3T3 murine fibroblast subline) cells, anti-Flag IP. Here is the method: (Clontech) were first transfected with recombinant PLNCX2/Flag-Dbc1 plasmid (10), and stable, neomycin-resistant sublines were generated and characterized for Dbc1 expression essentially as described by us before (5; [35]). The Dbc1 expressing PT67 cells were then separately transfected with pcDNA3 vector, pcDNA3-Gst, pcDNA3-Gst-H2AX, pcDNA3-EGFP, or pcDNA3-EGFP-H2AX (1–35) plasmids. Approximately 1mg of cell lysate from each of transfected, Dbc1-expressing, PT67 cells was subjected to immunoprecipitation using anti-Flag tag M2 antibodies (F1804, Sigma). The immunoprecipitates were then analyzed by WB by probing the membrane with anti-Gst (top autoradiograph), anti-p53 D2H90 rodent specific rabbit mAb (32532S; Cell Signaling; 2nd autoradiograph from top), or anti-Fag tag (for Dbc1) antibodies (3rd autoradiograph from top). The membranes containing […] of respective cell lysates (marked as whole cell lysates) were subsequently probed with anti-Gst tag (Bottom left autoradiograph) or anti-EGFP antibodies (Bottom right autoradiograph) to ascertain expression of transfected, Gst, Gst-tagged H2AX proteins, EGFP, and EGFP-H2AX (1–35) proteins. The presence of respective proteins is indicated by an arrowhead on the left side of each blot. Approximate location of various molecular weight markers is indicated on the right side of each blot. kDa, kilodalton.
© 2019 by the authors. […]

For experiment [1], the system named is CARP-1, phospho-JNK1/2, phospho-H2AX, PARP. The experiment in a line: Western blot of CARP-1, phospho-JNK1/2, γH2AX, cleaved PARP in MDA-MB-468. The class given is cell-based, human.
A further experiment relates to MDA-MB-231 HBC cells. The following applies: MDA-MB-231, compared with untreated counterparts; ref [34]; cited from earlier work.

No end group written: not given here.

Turning to “His-TAT-HA-CARP-1 (631–660): E. coli-expressed His-TAT-HA-tagged CARP-1 peptide (WSKLDPKTMKVNDLRKELESRALSSKGLKS; also: His, TAT and HA tags kept, end not given here)”, the “binding with Gst-H2AX (1–35)” value in the experiment on Gst-H2AX (1–35) was “bound with Gst-H2AX and Gst-H2AX (1–35) proteins”. Moreover, in the experiment with Gst-H2AX, the “binding with Gst-H2AX protein” value is given as “bound with Gst-H2AX protein”.
For the compound “WSKLDPKTMKVNDLRKELESRALSSKGLKS [CARP-1 (631–660)]”, the kon on H2AX (1–35) peptide (read-out: Ka (association rate constant)) turned out to be 2320 M⁻¹ s⁻¹. Besides, the koff at H2AX (1–35) peptide (read-out: Kd (dissociation rate constant)) amounted to 0.000292 s⁻¹.
With “H2AX (1–35): commercially synthesized H2AX (1–35) peptide; epitope of H2AX (tested as EGFP-tagged protein) (MSGRGKTGGKARAKAKSRSSRAGLQFPVGRVHRLL; UniProt P16104 1-35, looked up, fragment)”, in the experiment on DBC1 (CCAR2), the “interaction with DBC1” value is recorded as “does not interact”.
For `Cc1cc(NC(=O)c2cccc(NC(=O)/C=C/CN(C)C)c2)ccc1Nc1nccc(-c2cccnc2)n1` [JNK-IN-8], the JNK activation result in experiment [1] (MDA-MB-468, 5 μM JNK-IN-8, WB) was “total loss of JNK activation”. In addition, the “levels of CARP-1” value in experiment [1] (MDA-MB-468, combination of JNK-IN-8 (5 μM) with Adriamycin, WB) is “elevated levels of CARP-1”; in experiment [1] (MDA-MB-468, single agent (JNK-IN-8 at 5 μM), WB), “elevated levels of CARP-1”. Moreover, the γH2AX result in experiment [1] (MDA-MB-468, combined presence of JNK-IN-8 (5 μM) and Adriamycin, WB) is reported as “reduced levels of γH2AX”. Besides, the viabilities entry in the experiment on MDA-MB-231 HBC cells is recorded as “significantly reduced viabilities”.

The values are drawn from paper PMC6406907, “A H2AX–CARP-1 Interaction Regulates Apoptosis Signaling Following DNA Damage” (Cancers, 2019).
